Laboratory results as given in ChEMBL document CHEMBL1201862, “PubChem BioAssay data set” (2004).
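Following 48 hours of exposure in 96-well plates, responses at five concentrations were used to interpolate endpoints linearly. GI50 = concentration required for 50% inhibition of growth.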 Calls of active or inactive are those of the source. Cut-off read from the data, not from the text of the source: active = GI50 up to about 1.1 µM and inactive = higher.

Key:
Assay in all cases: NCI-60 cell line screen, 48 h
SF-539 = test system: SF-539
SNB-75 = test system: SNB-75
SF-268 = test system: SF-268
LOX IMVI = test system: LOX IMVI
Malme-3M = test system: Malme-3M
UACC-62 = test system: UACC-62
SN12C = test system: SN12C
UACC-257 = test system: UACC-257
SK-MEL-28 = test system: SK-MEL-28
IGROV-1 = test system: IGROV-1
OVCAR-4 = test system: OVCAR-4
SK-MEL-2 = test system: SK-MEL-2
K562 = test system: K562
HOP-62 = test system: HOP-62
A498 = test system: A498
SW-620 = test system: SW-620

SMILES	GI50 (SF-539)	GI50 (SNB-75)	GI50 (SF-268)	GI50 (LOX IMVI)	GI50 (Malme-3M)	GI50 (UACC-62)	GI50 (SN12C)	GI50 (UACC-257)	GI50 (SK-MEL-28)	GI50 (IGROV-1)	GI50 (OVCAR-4)	GI50 (SK-MEL-2)	GI50 (K562)	GI50 (HOP-62)	GI50 (A498)	GI50 (SW-620)
O=C(CSc1nnc(Cc2ccccc2)o1)Nc1cccc([N+](=O)[O-])c1	> 100 µM (inactive)	58.5 µM (inactive)	> 100 µM (inactive)	> 100 µM (inactive)	> 100 µM (inactive)	> 100 µM (inactive)	> 100 µM (inactive)	> 100 µM (inactive)	> 100 µM (inactive)	> 100 µM (inactive)	> 100 µM (inactive)	> 100 µM (inactive)	> 100 µM (inactive)	> 100 µM (inactive)		
COc1cc(OC)c(C(=O)c2cccs2)cc1N	> 100 µM (inactive)	> 100 µM (inactive)	> 100 µM (inactive)	> 100 µM (inactive)	> 100 µM (inactive)	> 100 µM (inactive)	> 100 µM (inactive)	> 100 µM (inactive)	> 100 µM (inactive)	> 100 µM (inactive)	> 100 µM (inactive)	> 100 µM (inactive)	> 100 µM (inactive)	> 100 µM (inactive)	> 100 µM (inactive)	> 100 µM (inactive)
CCOc1ccc(NCC(=O)N2CC(=O)Nc3ccccc32)cc1	> 100 µM (inactive)	> 100 µM (inactive)	> 100 µM (inactive)	> 100 µM (inactive)	> 100 µM (inactive)	> 100 µM (inactive)	> 100 µM (inactive)	> 100 µM (inactive)	> 100 µM (inactive)		> 100 µM (inactive)	> 100 µM (inactive)	> 100 µM (inactive)	> 100 µM (inactive)		> 100 µM (inactive)
COc1cc(NC(C)=O)c2[nH]c3c(C)cc(NC(C)=O)c(C)c3c2c1	> 100 µM (inactive)	> 100 µM (inactive)	> 100 µM (inactive)				> 100 µM (inactive)		> 100 µM (inactive)	> 100 µM (inactive)	> 100 µM (inactive)	> 100 µM (inactive)	> 100 µM (inactive)		> 100 µM (inactive)	> 100 µM (inactive)
O=C1c2ccccc2C(=O)N1Cc1ccccc1-c1c2nc(c(-c3ccccc3CN3C(=O)c4ccccc4C3=O)c3ccc([nH]3)c(-c3ccccc3CN3C(=O)c4ccccc4C3=O)c3nc(c(-c4ccccc4CN4C(=O)c5ccccc5C4=O)c4ccc1[nH]4)C=C3)C=C2	> 100 µM (inactive)	> 100 µM (inactive)	> 100 µM (inactive)	> 100 µM (inactive)	> 100 µM (inactive)	> 100 µM (inactive)	> 100 µM (inactive)	> 100 µM (inactive)	> 100 µM (inactive)	> 100 µM (inactive)	> 100 µM (inactive)	> 100 µM (inactive)	> 100 µM (inactive)	> 100 µM (inactive)	> 100 µM (inactive)	> 100 µM (inactive)
C/C(CC(=O)Nc1ccc(Cl)cc1)=N\NC(=O)C[n+]1ccccc1	> 100 µM (inactive)	> 100 µM (inactive)	> 100 µM (inactive)	> 100 µM (inactive)	> 100 µM (inactive)	> 100 µM (inactive)		> 100 µM (inactive)	> 100 µM (inactive)	> 100 µM (inactive)		> 100 µM (inactive)	> 100 µM (inactive)	> 100 µM (inactive)		> 100 µM (inactive)
Cc1cc(NS(=O)(=O)c2ccc(NC(=O)COC(=O)c3cccc4c(=O)c5ccccc5[nH]c34)cc2)no1	> 100 µM (inactive)	> 100 µM (inactive)	> 100 µM (inactive)	> 100 µM (inactive)	> 100 µM (inactive)	> 100 µM (inactive)	> 100 µM (inactive)	> 100 µM (inactive)	> 100 µM (inactive)	> 100 µM (inactive)	> 100 µM (inactive)		> 100 µM (inactive)	> 100 µM (inactive)	> 100 µM (inactive)	> 100 µM (inactive)
COC(=O)C(CC(C)C)NC(=O)NC12CC3CC(CC(F)(C3)C1)C2 (stereo unspecified)	> 100 µM (inactive)	27.1 µM (inactive)		> 100 µM (inactive)	> 100 µM (inactive)	> 100 µM (inactive)		> 100 µM (inactive)	> 100 µM (inactive)	> 100 µM (inactive)		> 100 µM (inactive)	> 100 µM (inactive)	> 100 µM (inactive)	> 100 µM (inactive)	> 100 µM (inactive)
CC(C)=CCc1c(O)cc(O)c2c1OC(c1ccc(O)cc1)C(O)C2=O (stereo unspecified)	18.4 µM (inactive)	26.8 µM (inactive)	32.1 µM (inactive)	18.7 µM (inactive)	25.5 µM (inactive)	21.4 µM (inactive)	27.7 µM (inactive)	36.2 µM (inactive)	23.3 µM (inactive)	32 µM (inactive)	30.5 µM (inactive)	23.6 µM (inactive)	20.2 µM (inactive)	19.3 µM (inactive)	42.2 µM (inactive)	36.4 µM (inactive)
Cc1ccc(Sc2ccccc2[N+](=O)[O-])cc1	33 µM (inactive)	5.71 µM (inactive)	38.2 µM (inactive)	27.4 µM (inactive)	32.3 µM (inactive)	37.3 µM (inactive)	29.8 µM (inactive)	20 µM (inactive)	21.9 µM (inactive)	83 µM (inactive)	27.4 µM (inactive)	27.9 µM (inactive)	18.1 µM (inactive)	32.1 µM (inactive)	47.6 µM (inactive)	25.9 µM (inactive)
CC(=O)OC1CC2OC(Cc3ccccc32)O1 (stereo unspecified)	29.9 µM (inactive)	65 µM (inactive)	> 100 µM (inactive)	> 100 µM (inactive)	27.6 µM (inactive)	> 100 µM (inactive)	64.1 µM (inactive)	> 100 µM (inactive)	> 100 µM (inactive)	> 100 µM (inactive)		> 100 µM (inactive)	> 100 µM (inactive)	> 100 µM (inactive)		> 100 µM (inactive)
COC(=O)C(Cc1nc2ccc(Cl)cc2nc1O)/C(=N/O)C(=O)Nc1cccc(Cl)c1C (stereo unspecified)	> 100 µM (inactive)	65.6 µM (inactive)	> 100 µM (inactive)	> 100 µM (inactive)	> 100 µM (inactive)	> 100 µM (inactive)	> 100 µM (inactive)	> 100 µM (inactive)	> 100 µM (inactive)	> 100 µM (inactive)	> 100 µM (inactive)	> 100 µM (inactive)	> 100 µM (inactive)	> 100 µM (inactive)	> 100 µM (inactive)	> 100 µM (inactive)
O=C1NC2OC(C(O)CO)C(O)C2O1 (stereo unspecified)		> 100 µM (inactive)	> 100 µM (inactive)	> 100 µM (inactive)	> 100 µM (inactive)	> 100 µM (inactive)	> 100 µM (inactive)	> 100 µM (inactive)	> 100 µM (inactive)	> 100 µM (inactive)	> 100 µM (inactive)	> 100 µM (inactive)	> 100 µM (inactive)		> 100 µM (inactive)	> 100 µM (inactive)
CC(C)c1cccc(C(C)C)c1NC(=S)Nc1ccccc1	> 100 µM (inactive)	36.5 µM (inactive)	> 100 µM (inactive)	79.4 µM (inactive)	> 100 µM (inactive)	> 100 µM (inactive)	> 100 µM (inactive)	> 100 µM (inactive)	> 100 µM (inactive)	> 100 µM (inactive)	10.8 µM (inactive)	> 100 µM (inactive)	70.6 µM (inactive)	> 100 µM (inactive)	> 100 µM (inactive)	> 100 µM (inactive)
CCOc1cccc2sc(N)nc12	> 100 µM (inactive)	> 100 µM (inactive)	> 100 µM (inactive)	> 100 µM (inactive)	> 100 µM (inactive)	> 100 µM (inactive)	> 100 µM (inactive)	> 100 µM (inactive)	> 100 µM (inactive)	> 100 µM (inactive)	> 100 µM (inactive)	> 100 µM (inactive)	> 100 µM (inactive)	> 100 µM (inactive)	> 100 µM (inactive)	> 100 µM (inactive)
Cc1ccccc1NC(=O)C(=O)CC(=O)c1ccc([N+](=O)[O-])cc1	> 100 µM (inactive)	39.6 µM (inactive)	> 100 µM (inactive)	> 100 µM (inactive)	> 100 µM (inactive)	> 100 µM (inactive)	> 100 µM (inactive)	> 100 µM (inactive)	> 100 µM (inactive)	> 100 µM (inactive)	> 100 µM (inactive)	> 100 µM (inactive)		> 100 µM (inactive)		> 100 µM (inactive)
CCOC(=O)CC1=CSC2=NCCN12	> 100 µM (inactive)	> 100 µM (inactive)	> 100 µM (inactive)	> 100 µM (inactive)	> 100 µM (inactive)	> 100 µM (inactive)	> 100 µM (inactive)	> 100 µM (inactive)	> 100 µM (inactive)	> 100 µM (inactive)	> 100 µM (inactive)	> 100 µM (inactive)	> 100 µM (inactive)	> 100 µM (inactive)	> 100 µM (inactive)	> 100 µM (inactive)
COc1cc2c(c(OC)c1OC)-c1ccc(SC)c(=O)cc1[C@@H](NCc1ccc(C#N)cc1)CC2	0.00252 µM (active)	0.00307 µM (active)	0.00612 µM (active)	0.00521 µM (active)	0.00564 µM (active)	0.00264 µM (active)	0.00449 µM (active)	0.00671 µM (active)	0.00578 µM (active)	0.00412 µM (active)	3.74 µM (inactive)	0.00703 µM (active)	0.00383 µM (active)	0.004 µM (active)	0.00589 µM (active)	0.00366 µM (active)
